According to patent publication US4132778A, “Antibiotic A-32887” (Eli Lilly and Company, priority 1977, dated 1979):

Key:
[1] = system: Bacteriodes corrodens; experiment: Standard agar-dilution assay, anaerobic bacteria, Table IX; format: cell-based; conditions: 24-hour incubation
[2] = system: powdery mildew disease in bean plants; experiment: Plant disease test, spray; format: in vivo; conditions: 400 ppm as a spray
From the text: The A-32887 compounds are also useful in the treatment of certain plant diseases.

[3] = system: Bacteriodes fragilis ssp thetaiotaomicron; experiment: Standard agar-dilution assay, anaerobic bacteria, Table IX; format: cell-based; conditions: 24-hour incubation
[4] = system: Bacteriodes fragilis ssp fragilis 1936B; experiment: as above; format: cell-based; conditions: 24-hour incubation
[5] = system: ATPase; experiment: In vitro ATPase inhibition test using NaCl; format: biochemical
From the text: In yet another aspect, the A-32887 compounds are active as inhibitors of the enzyme ATPase. ATPase, an alkali-metal-sensitive enzyme found in cell membranes, is involved in the energy necessary for active transport. "Active transport" refers to the energy-requiring series of operations whereby intracellular and extracellular fluids maintain their compositions. Inhibitors of ATPase reduce the energy required for active transport.

[6] = system: E. tenella, E. maxima and E. acervulina; experiment: Anticoccidial feeding test in chicks, E. tenella, E. maxima and E. acervulina (Table XIII); conditions: for Percent Mortality: due to coccidiosis; for Percent Weight Gain: per survivor
[7] = system: Diplococcus pneumoniae; experiment: Conventional disc-diffusion method, Table VII; format: cell-based
From the text: (§1) The activity of A-32887 (Na-K salt) against illustrative bacteria, as measured by the conventional disc-diffusion method, is summarized in Table VI.

[8] = system: Streptococcus pyogenes (Group A); experiment: Conventional disc-diffusion method, Table VII; format: cell-based
From the text: as §1

[9] = system: Staphylococcus aureus 3055; experiment: Conventional disc-diffusion method, Table VII; format: cell-based
From the text: as §1

[10] = system: Streptococcus sp. (Group D); experiment: Conventional disc-diffusion method, Table VII; format: cell-based
From the text: as §1

[11] = system: Peptostreptococcus intermedius; experiment: Standard agar-dilution assay, anaerobic bacteria, Table IX; format: cell-based; conditions: 24-hour incubation
[12] = system: rumen flora; experiment: Rumen volatile-fatty-acid (VFA) production test in flasks (Table XIV); conditions: 1 mcg/ml
[13] = system: guinea pig left atria; experiment: Cardiac contractility in guinea pig left atria; conditions: 10^-5 molar
From the text: The A-32887 compounds are potential cardiotonic agents. In tests using guinea pig left atria, A-32887 (Na-K salt) increased cardiac contractility. Response to this test is expressed as a percentage of the maximal force that could be elicited by a challenge dose of norepinephrine. A-32887 (Na-K salt), at a 10^-5 molar concentration, increased cardiac contractility by 28.0 ± 7.1 percent.

[14] = system: E. tenella AND E. maxima; experiment: Anticoccidial feeding test in chicks, E. tenella and E. maxima (Table XI); format: in vivo; set-up: Average Lesion Score, Total Intestinal / Average Lesion Score, Cecal: scale not given here; Mortality: unit not given here; conditions: for Mortality: due to coccidiosis
Procedure: ^1 70,000 oocysts/bird of each of E. tenella and E. maxima
^2 Infected 48 hours postmedication; terminated seven days
^3 Four replicates; five birds/replicate

[15] = system: Eubacterium aerofaciens; experiment: Standard agar-dilution assay, anaerobic bacteria, Table IX; format: cell-based; conditions: 24-hour incubation
[16] = system: Staphylococcus aureus 3130 (Methicillin-resistant); experiment: Conventional disc-diffusion method, Table VII; format: cell-based
From the text: as §1
**Methicillin-resistant

[17] = system: Bacteriodes fragilis ssp fragilis 1877; experiment: Standard agar-dilution assay, anaerobic bacteria, Table IX; format: cell-based; conditions: 24-hour incubation
[18] = system: Staphylococcus aureus 3074 (Penicillin G-resistant); experiment: Conventional disc-diffusion method, Table VII; format: cell-based
From the text: as §1
*Penicillin G-resistant

[19] = system: ruminal propionate concentration; experiment: Ruminal VFA in fistulated feed-lot cattle (Table XV); format: in vivo; conditions: 30 g/ton, 24 days
From the text: The procedure used in testing cattle in this manner is also described in Raun's U.S. Pat. No. 3,839,557 (see Example 9). Table XV summarizes the results of such a test with A-32887 (Na-K salt) wherein five feed-lot cattle weighing approximately 425 kg. were in each group and the mean percent increases in ruminal propionate concentration were averaged over four analyses in a 24-day treatment period.

[20] = system: Bacteriodes vulgatis; experiment: Standard agar-dilution assay, anaerobic bacteria, Table IX; format: cell-based; conditions: 24-hour incubation
Procedure: (§2) Table IX summarizes the MIC's at which A-32887 (Na-K salt) inhibits various anaerobic bacteria, as determined by standard agar-dilution assay. End points were read after 24-hour incubation.

[21] = system: Actinomyces israelii; experiment: as above; format: cell-based; conditions: 24-hour incubation
Procedure: as §2

[22] = system: Bacteriodes fragilis ssp fragilis 111; experiment: as above; format: cell-based; conditions: 24-hour incubation
Procedure: as §2

[23] = system: Bacteriodes melaninogenicus 1856/28; experiment: as above; format: cell-based; conditions: 24-hour incubation
Procedure: as §2

[24] = system: Clostridium septicum; experiment: as above; format: cell-based; conditions: 24-hour incubation
Procedure: as §2

[25] = system: Pasteurella multocida (bovine); experiment: Standard agar-dilution assay (MIC), Table VI; format: cell-based; conditions: Na-K salt
From the text: Antibiotic A-32887 inhibits the growth of pathogenic bacteria, especially gram-positive bacteria. Table VI summarizes the minimal inhibitory concentrations (MIC), as measured by standard agar-dilution assays, at which A-32887 (Na-K salt) inhibits certain bacteria.

[26] = system: Fusobacterium necrophorum; experiment: Standard agar-dilution assay, anaerobic bacteria, Table IX; format: cell-based; conditions: 24-hour incubation
[27] = system: Peptococcus asaccharolyticus; experiment: as above; format: cell-based; conditions: 24-hour incubation

Q: Which results are given for CO[C@H]1CC[C@H](OC2[C@@H](C)[C@@](C)(O)O[C@H]([C@H]3CC[C@H]([C@@H]4CC[C@H]([C@@]5(C)O[C@]6(O[C@H](C[C@@H]7O[C@](O)([C@@H](O)C(=O)O)[C@@H](C)[C@H](OC)[C@@]7(C)OC)C[C@@H](OC)[C@H]6C)[C@H](C)[C@H]5OC)O4)O3)[C@H]2C)O[C@@H]1C.[K+].[Na+] (stereo partly shown) [A-32887 (Na-K salt)]?
A: MIC [1]: 2 µg/mL; inhibition of powdery mildew disease [2]: inhibits powdery mildew disease; MIC [3]: 2 µg/mL; MIC [4]: 2 µg/mL; ATPase inhibition [5]: shown to inhibit ATPase; Average Lesion Score, Cecal ([6]; 25 ppm): 3.9; Average Lesion Score, Intestinal ([6]; 25 ppm): 1.1; Percent Mortality ([6]; 25 ppm): 35%; Percent Weight Gain ([6]; 25 ppm): 57%; Average Lesion Score, Cecal ([6]; 50 ppm): 3.8; Average Lesion Score, Intestinal ([6]; 50 ppm): 1.8; Percent Mortality ([6]; 50 ppm): 0%; Percent Weight Gain ([6]; 50 ppm): 79%; Average Lesion Score, Cecal ([6]; 75 ppm): 2.0; Average Lesion Score, Intestinal ([6]; 75 ppm): 0.9; Percent Mortality ([6]; 75 ppm): 0%; Percent Weight Gain ([6]; 75 ppm): 90%; Average Lesion Score, Cecal ([6]; 100 ppm): 0.1; Average Lesion Score, Intestinal ([6]; 100 ppm): 0; Percent Mortality ([6]; 100 ppm): 0%; Feed/Gain ([6]; 100 ppm, pens without deaths only): 1.50; Percent Weight Gain ([6]; 100 ppm): 93%; Zone of Inhibition ([7]; 30 mcg/disc): 16.0 mm; Zone of Inhibition ([7]; 300 mcg/disc): 18.0 mm; Zone of Inhibition ([8]; 30 mcg/disc): 14.0 mm; Zone of Inhibition ([8]; 300 mcg/disc): 17.5 mm; Zone of Inhibition ([9]; 30 mcg/disc): 12.0 mm; Zone of Inhibition ([9]; 300 mcg/disc): 15.6 mm; Zone of Inhibition ([10]; 30 mcg/disc): 13.7 mm; Zone of Inhibition ([10]; 300 mcg/disc): 14.7 mm; MIC [11]: 1.0 µg/mL; Ratio of Treated to Control, Molar % Acetate [12]: 0.5744; Ratio of Treated to Control, Molar % Butyrate [12]: 1.1116; Ratio of Treated to Control, Total VFA mM/l. [12]: 0.7498; Ratio of Treated to Control, Molar % Propionate ([12]; *P<0.01): 1.4191; increase of cardiac contractility (percentage of maximal force elicited by norepinephrine) [13]: 28.0 ± 7.1%; Average Lesion Score, Cecal ([14]; 40 ppm in feed): 1.6; Average Lesion Score, Total Intestinal ([14]; 40 ppm in feed): 4.9; Mortality ([14]; 40 ppm in feed): 0; Average Lesion Score, Cecal ([14]; 60 ppm in feed): 0.6; Average Lesion Score, Total Intestinal ([14]; 60 ppm in feed): 5.9; Mortality ([14]; 60 ppm in feed): 0; Average Lesion Score, Cecal ([14]; 80 ppm in feed): 0.3; Average Lesion Score, Total Intestinal ([14]; 80 ppm in feed): 3.0; Mortality ([14]; 80 ppm in feed): 0; Average Lesion Score, Cecal ([14]; 100 ppm in feed): 0; Average Lesion Score, Total Intestinal ([14]; 100 ppm in feed): 1.6; Mortality ([14]; 100 ppm in feed): 0; MIC [15]: ≤ 0.5 µg/mL; Zone of Inhibition ([16]; 30 mcg/disc): 15.0 mm; Zone of Inhibition ([16]; 300 mcg/disc): 15.2 mm; MIC [17]: 2 µg/mL; Zone of Inhibition ([18]; 30 mcg/disc): 12.7 mm; Zone of Inhibition ([18]; 300 mcg/disc): 16.0 mm; Molar % Butyrate [19]: 9.6 Molar %; Total VFA [19]: 79.6 mM/l.; MIC [20]: 4 µg/mL; MIC [21]: ≤ 0.5 µg/mL; MIC [22]: 2 µg/mL; MIC [23]: 32 µg/mL; MIC [24]: ≤ 0.5 µg/mL; MIC [25]: 50.00 µg/mL; MIC [26]: 32 µg/mL; MIC [27]: ≤ 0.5 µg/mL
